Assay results: ChEMBL document CHEMBL1154146, “A 2-substituted prodiginine, 2-(p-hydroxybenzyl)prodigiosin, from Pseudoalteromonas rubra” (J Nat Prod, 2008)
Active and inactive are the calls of the source. No cut-off for these calls is given here.

Tests used:
[1] = molecular target: T1, DNA topoisomerase 1 (Homo sapiens) (UniProt P11387); test: Inhibition of human topoisomerase 1
T1 sequence (whole entry): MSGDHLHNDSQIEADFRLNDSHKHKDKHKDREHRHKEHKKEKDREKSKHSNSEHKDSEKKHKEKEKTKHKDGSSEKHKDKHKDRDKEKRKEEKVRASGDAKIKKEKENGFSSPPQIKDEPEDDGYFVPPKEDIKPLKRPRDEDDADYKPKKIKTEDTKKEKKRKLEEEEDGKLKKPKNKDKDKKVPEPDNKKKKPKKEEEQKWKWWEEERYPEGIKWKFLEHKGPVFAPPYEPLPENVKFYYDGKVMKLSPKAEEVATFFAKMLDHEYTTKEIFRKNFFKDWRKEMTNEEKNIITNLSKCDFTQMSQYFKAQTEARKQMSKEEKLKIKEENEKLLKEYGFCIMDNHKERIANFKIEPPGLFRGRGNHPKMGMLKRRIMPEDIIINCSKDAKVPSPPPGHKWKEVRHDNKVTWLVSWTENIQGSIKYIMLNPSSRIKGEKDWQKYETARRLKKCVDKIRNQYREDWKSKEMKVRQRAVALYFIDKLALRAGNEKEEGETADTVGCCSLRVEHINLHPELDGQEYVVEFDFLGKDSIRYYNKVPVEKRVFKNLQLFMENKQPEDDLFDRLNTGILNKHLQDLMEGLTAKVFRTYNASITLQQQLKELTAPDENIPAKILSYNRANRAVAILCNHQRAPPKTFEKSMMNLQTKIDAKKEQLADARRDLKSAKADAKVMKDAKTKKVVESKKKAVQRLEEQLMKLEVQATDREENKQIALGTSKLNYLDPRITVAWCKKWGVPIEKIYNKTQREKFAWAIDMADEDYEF

[2] = test system: SK-OV-3; test: Cytotoxicity against human SKOV3 cells after 48 hrs by SRB assay; type: functional, cell-based; details: SK-OV-3, 48 h

| Structure (SMILES) | inhibition [1] | IC50 [2] [µM] |
| --- | --- | --- |
| CCCCCC1=C/C(=C/c2[nH]c(-c3ccc(Cc4ccc(O)cc4)[nH]3)cc2OC)N=C1C | Active | 1.3 |
| CCCCCC1=C/C(=C/c2[nH]c(-c3ccc[nH]3)cc2OC)N=C1C [PRODIGIOSIN] | Active | 1.3 |
